{
  "source": "patent US20080219975A1",
  "about": "“VEGFR3 INHIBITORS” (priority 2006, published 2008)",
  "key": {"[1]": {"test_system": "VEGFR3 dependent VEGF-C stimulation of Erk1/2", "assay": "Inhibition of Erk activation induced by VEGF-C in HMVEC-d cells", "assay_type": "cell-based, human", "details": "5 μM, 100 ng/ml VEGF-C (FIG. 2)", "description": "(§1) HMVEC-d cells (Cambrex) were cultured at 37 C in 5% CO2 in appropriate serum containing medium (Cambrex) on fibronectin coated 12-well plates (BD Biocoat, Becton Dickinson) for 4 days. Cells were then starved for 16 hours in the same medium as before, but lacking serum and containing SITE+3 (Invitrogen) instead. Cells were then preincubated with DMSO at 0.2% (the solvent) or 5 uM Compound 2 for 60 minutes and then either 10 ng/ml VEGF or 100 ng/ml VEGF-C (R&D systems) was added to the cells. Before, or 10 and 30 minutes after stimulation, the medium was removed, cells were rinsed with ice-cold PBS containing 0.1 mM sodiumorthovanadate and lysed in M-PER buffer (PIERCE) containing 0.1% SDS, and 1× phosphatase and protease inhibitors (HALT, PIERCE). Cells were scraped off the plates and incubated in lysis buffer for 30 minutes on ice and then centrifuged at 4° C. for 10 min at 16000×g. Lysates were quantified using the BCA reagent according to the manufacturer's instructions (PIERCE), and […] of total protein was loaded on SDS-polyacrylamide gels (NUPAGE, Invitrogen). Electrophoresis and blotting onto PVDF membranes was all performed using reagents from the NUPAGE system, according to the manufacturer's instructions. […]"}, "VEGFR3 [2]": {"molecular_target": "T1, VEGFR3 (Homo sapiens, UniProt P35916)", "T1 sequence (P35916 25-1363)": "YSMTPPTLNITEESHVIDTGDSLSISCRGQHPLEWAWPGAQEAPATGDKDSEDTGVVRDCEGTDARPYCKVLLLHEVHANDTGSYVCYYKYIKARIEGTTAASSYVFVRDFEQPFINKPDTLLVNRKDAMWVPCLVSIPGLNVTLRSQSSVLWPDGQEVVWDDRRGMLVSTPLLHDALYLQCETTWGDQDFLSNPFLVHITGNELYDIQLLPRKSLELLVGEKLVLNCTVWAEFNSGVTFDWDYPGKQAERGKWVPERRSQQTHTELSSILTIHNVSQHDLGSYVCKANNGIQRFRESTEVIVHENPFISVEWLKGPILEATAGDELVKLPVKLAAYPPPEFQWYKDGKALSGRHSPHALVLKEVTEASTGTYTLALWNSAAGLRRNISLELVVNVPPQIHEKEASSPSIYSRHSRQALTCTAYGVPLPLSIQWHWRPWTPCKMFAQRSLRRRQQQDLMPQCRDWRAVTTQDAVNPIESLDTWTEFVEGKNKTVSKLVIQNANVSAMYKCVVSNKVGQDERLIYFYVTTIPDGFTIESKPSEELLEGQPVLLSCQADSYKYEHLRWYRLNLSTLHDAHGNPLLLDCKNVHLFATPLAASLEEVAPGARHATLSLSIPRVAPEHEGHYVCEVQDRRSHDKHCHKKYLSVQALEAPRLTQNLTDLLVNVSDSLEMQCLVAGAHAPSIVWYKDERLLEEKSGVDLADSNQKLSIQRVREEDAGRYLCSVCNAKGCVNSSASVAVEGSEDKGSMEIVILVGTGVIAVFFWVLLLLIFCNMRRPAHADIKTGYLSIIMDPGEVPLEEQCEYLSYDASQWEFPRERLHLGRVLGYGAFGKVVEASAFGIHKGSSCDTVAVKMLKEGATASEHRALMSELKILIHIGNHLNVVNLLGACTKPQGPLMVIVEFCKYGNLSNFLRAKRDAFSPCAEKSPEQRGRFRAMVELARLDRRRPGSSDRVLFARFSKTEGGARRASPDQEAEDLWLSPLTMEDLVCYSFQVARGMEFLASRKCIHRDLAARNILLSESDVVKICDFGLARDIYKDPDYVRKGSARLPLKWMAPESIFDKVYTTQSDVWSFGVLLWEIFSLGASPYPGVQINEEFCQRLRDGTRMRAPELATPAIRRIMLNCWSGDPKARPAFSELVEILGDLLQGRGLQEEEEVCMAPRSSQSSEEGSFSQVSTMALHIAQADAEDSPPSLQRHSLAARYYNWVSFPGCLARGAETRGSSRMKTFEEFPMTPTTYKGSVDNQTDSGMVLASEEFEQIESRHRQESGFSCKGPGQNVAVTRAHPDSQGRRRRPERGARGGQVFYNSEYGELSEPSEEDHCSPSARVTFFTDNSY", "assay": "VEGFR3 in vitro kinase assay", "assay_type": "biochemical", "details": "10 μM ATP", "description": "The VEGFR3 kinase reaction was performed at 30° C. for 10 minutes in a 96-well microtiterplate. The 25 μl reaction volume contained 8 mM MOPS pH 7, 200 μM EDTA, 10 mM MgAc, 10 μM unlabeled ATP, […] AT33P, 500 μM JAK3-tide (Ac-GGEEEEYFELVKKKK-NH2), 25 ng VEGFR3 and 2% compound in 100% DMSO.\nThe reaction was stopped by adding 5 μl of a 3% phosphoric acid solution. 10 μl of the reaction mixture was then spotted onto a Filtermat P30 filter (Wallac) and washed 3 times for 5 min. in 0.75% phosphoric acid and 1 time for 2 min. in methanol prior to transferring to a sealable plastic bag containing 4 ml of scintillation liquid and reading in a scintillation counter."}, "VEGFR3 [3]": {"molecular_target": "T1, VEGFR3", "assay": "Inhibition of VEGF-C induced VEGFR-3 phosphorylation in PAE cells stably expressing human VEGFR-3", "assay_type": "cell-based", "design": "expressed in transfected cells; host or cells: porcine aortic endothelial (PAE) cells", "details": "PAE cells expressing human VEGFR-3, 100 ng/ml VEGF-C, Western blot (FIG. 1)", "quoted_text": "For this assay, porcine aortic endothelial (PAE) cells stably expressing human VEGFR-3 were grown to confluency on 10 cm dishes. The cells were serum starved overnight and the media replaced with fresh serum-free media. […] This was followed by the addition of VEGF-C to a final concentration of 100 ng/ml and the cells incubated for 10 min at 37° C., after which they were washed with ice-cold PBS and then lysed. Cell lysates containing protease inhibitors were subjected to immunoprecipitation with an antibody specific for VEGFR-3 and the immunoprecipitates separated by SDS-PAGE. Proteins were transferred to a nitrocellulose membrane, and then probed first with a phospho-tyrosine antibody and then a VEGFR-3 antibody."}, "[4]": {"test_system": "VEGFR1 mediated VEGF signaling", "assay": "VEGF stimulation of Erk1/2 in HMVEC-d cells", "assay_type": "cell-based, human", "details": "5 μM, 10 ng/ml VEGF (FIG. 2)", "description": "as §1"}, "Xenopus tadpoles": {"test_system": "Xenopus tadpoles", "assay": "VEGFR3 in vivo Xenopus assay (lymphangiogenesis, LEC migration)", "details": "for % Relative Area 2-3: LECs in area 2-3 relative to vehicle control; for % Relative Max Migration: furthest LEC migration from PCV relative to vehicle control; for % embryos with reduced migration: stages 35-36 tadpoles", "description": "Xenopus tadpoles were used as a model (Ny et al Nature Medicine 11: 998-1004 (2005)) to analyze the effects of Compound 2 on lymphangiogenesis. The compound was administered daily in a dose dependent manner, with vehicle controls, to the medium of the Xenopus tadpoles starting at stage 26-28, i.e., before the formation of both blood and lymphatic vessels. The effects of the compound was monitored by “live analysis”, i.e. live embryos were examined 4 days later for evidence of lymph-vascular defects by trained observers. As an additional means of confirming the results, in a limited number of experiments, tadpoles were fixed at stage 35-36 and in situ hybridizations for Prox1 were performed to assess migration of lymphatic endothelial cells (LECs) from the posterior cardinal vein (PCV) to their dorsal endpoint, this reflecting an essential step in lymphangiogenesis. Under normal circumstances, LECs arise from the region of the PCV, accumulate there, and during the study period, they migrate dorsally to defined “areas” (Area 1 to Area 2 and Area 3), where they then further migrate rostrally and caudally to form the lymphatic vasculature in the tail and trunk. Defects in migration of the LECs from the PCV was quantified by determining the maximal migration of the cells, and by counting the number of cells in these different regions in the tail."}},
  "data": [
    {"smiles": "COc1cc2ncnc3c2cc1OCCCCCN(C)Cc1ccc(Br)cc1N3", "note": "[Compound 2, 4,6-ethanediylidenepyrimido[4,5-b][6,1,12]benzoxadiazacyclo-pentadecine, 17-bromo-8,9,10,11,12,13,14,19-octahydro-20-methoxy-13-methyl-]", "values": [
      {"measurement": "phosphorylation of Erk1/2 by VEGF-C", "setting": "[1]", "result": "prevented"},
      {"measurement": "IC50", "setting": "VEGFR3 [2]", "result": 18.2, "unit": "nM"},
      {"measurement": "VEGF-C induced VEGFR-3 phosphorylation", "setting": "VEGFR3 [3]", "result": "dose dependent reduction"},
      {"measurement": "VEGF stimulation of Erk1/2", "setting": "[4]", "result": "did not interfere"},
      {"measurement": "% Relative Area 2-3", "setting": "Xenopus tadpoles; 0.3125 μM", "result": "37 ± 20", "unit": "%"},
      {"measurement": "% Relative Max Migration", "setting": "Xenopus tadpoles; 0.3125 μM", "result": "73 ± 22", "unit": "%"},
      {"measurement": "% embryos with reduced migration", "setting": "Xenopus tadpoles; 0.3125 μM", "result": 57, "unit": "%"},
      {"measurement": "% Relative Area 2-3", "setting": "Xenopus tadpoles; 1.25 μM", "result": "20 ± 8", "unit": "%"},
      {"measurement": "% Relative Max Migration", "setting": "Xenopus tadpoles; 1.25 μM", "result": "47 ± 5", "unit": "%"},
      {"measurement": "% embryos with reduced migration", "setting": "Xenopus tadpoles; 1.25 μM", "result": 63, "unit": "%"},
      {"measurement": "% Relative Area 2-3", "setting": "Xenopus tadpoles; 5 μM", "result": "123 ± 32", "unit": "%"},
      {"measurement": "% Relative Max Migration", "setting": "Xenopus tadpoles; 5 μM", "result": "121 ± 3", "unit": "%"},
      {"measurement": "% embryos with reduced migration", "setting": "Xenopus tadpoles; 5 μM", "result": 40, "unit": "%"},
      {"measurement": "% Relative Area 2-3", "setting": "Xenopus tadpoles; 20 μM", "result": "19 ± 8", "unit": "%"},
      {"measurement": "% Relative Max Migration", "setting": "Xenopus tadpoles; 20 μM", "result": "35 ± 1", "unit": "%"},
      {"measurement": "tadpoles that developed edema", "setting": "Xenopus tadpoles; 20 uM, live screening", "result": 10, "unit": "%"},
      {"measurement": "% embryos with reduced migration", "setting": "Xenopus tadpoles; 20 μM", "result": 60, "unit": "%"},
      {"measurement": "% Relative Area 2-3", "setting": "Xenopus tadpoles; 80 μM", "result": "56 ± 15", "unit": "%"},
      {"measurement": "% Relative Max Migration", "setting": "Xenopus tadpoles; 80 μM", "result": "67 ± 21", "unit": "%"},
      {"measurement": "% embryos with reduced migration", "setting": "Xenopus tadpoles; 80 μM", "result": 80, "unit": "%"},
      {"measurement": "tadpoles with hemorrhages", "setting": "Xenopus tadpoles; concentrations >50 uM, live screening", "result": 30, "unit": "%"},
      {"measurement": "effects in Xenopus tadpole model", "setting": "Xenopus tadpoles; in vivo", "result": "phenocopy the effects of VEGF-C knockout"},
      {"measurement": "Lymphatic Endothelial Cell (LEC) migration in tadpoles", "setting": "Xenopus tadpoles; stage 35-36 tadpoles", "result": "dose dependently inhibits"}
    ]},
    {"smiles": "COc1cc2ncnc3c2cc1OCCCCCCOc1c(Cl)cccc1N3", "note": "[4,6-ethanediylidene-19H-pyrimido[4,5-b][6,13,1]benzodioxaazacyclo-pentadecine, 15-chloro-8,9,10,11,12,13-hexahydro-20-methoxy-]", "values": [
      {"measurement": "melting point", "result": "255.5 to 260.2", "unit": "°C"}
    ]}
  ]
}
